We go through three molecules from patent US20260355192A1, “PROPHYLACTIC OR THERAPEUTIC AGENT FOR PERIOSTIN-MEDIATED DISEASE AND PRURITUS ASSOCIATED THEREWITH” (SAGA UNIVERSITY, priority 2022, published 2026).

The subject of data set [1] is integrin αvβ3. The note with it: cited from earlier work.
In data set [2] the test system is integrin αvβ3. The conditions noted are these: Nanri Y, et al. 2020; cited from earlier work.
Data set [3] addresses T1, integrin αvβ3 (Homo sapiens, UniProt P05106+P06756).
T1 construct: SW480 cells, a human colon cancer cell line not expressing integrin β3; expressed in transfected cells; host or cells: SW480 cells (human colon cancer) stably expressing human integrin β3
Nature of the data set: Inhibition of periostin-dependent adhesion of SW480 cells expressing integrin αvβ3. The class given is cell-based. The conditions noted are these: immobilized recombinant human periostin, FIG. 6; for IC50: SW480 cells expressing human integrin β3, compounds at 0.001-1 μM, read-out: 50% inhibition concentration (IC50 value) for cell adhesion inhibitory activity; for cell adhesion inhibitory effect (in words): SW480 cells expressing integrin αvβ3. The procedure:
For use in cell adhesion experiments, SW480 cells, a human colon cancer cell line not expressing integrin β3, were genetically engineered to stably express human integrin β3 (Nanri Y, et al. Am J Respir Cell Mol Biol. 62:204-216, 2020). The compounds shown in Table 1 were examined for their inhibitory activity against adhesion between integrin αvβ3 and periostin according to the following procedures. First, a 96-well plate was treated with 10 μg/mL recombinant human periostin (Bio-Techne) at 4 °C for 16 hours to immobilize periostin. The SW480 cells expressing integrin αvβ3 (5×10^4 cells) were reacted at room temperature for 15 minutes with the above compounds at 0.001, 0.01, 0.1 and 1 μM in serum-free DMEM (Dulbecco's Modified Eagle Medium) containing 0.5% bovine serum albumin and 0.25 mM MnCl2. A group receiving no compound was used as a control. The reacted cell suspensions were added to separate wells of the above human periostin-immobilized plate, and the plate was centrifuged at 10×g for 5 minutes and then cultured at 37 °C for 60 minutes. Then, after the adhered cells were washed to remove unbound cells, the adhered cells were fixed with 1% formaldehyde and stained with 0.5% crystal violet. The fixed and stained cells were solubilized with 0.2% Triton X-100 and measured for absorbance at 595 nm. The absorbance of the control (i.e., the group receiving no compound) was set to 0% inhibition. […] Cell adhesion in this test system is periostin-dependent, and a compound inhibiting this cell adhesion can be referred to as a periostin receptor antagonist.

Data set [4] has as its system scratching behaviors in FADS mice. Nature of the data set: Scratching behaviors in FADS mice upon single systemic administration of αvβ3 integrin inhibitors. The note with it: for % Change from baseline in the number of scratchings (mean ± standard error): single, 60 minutes after administration vs before administration. The class given is in vivo, mouse (FADS, Nestin-cre/Ikk2ff). From the text:
Nestin-cre transgenic mice were crossed with IKK2^ff mice to prepare Nestin-cre/Ikk2^ff mice specifically lacking IKK2 in their facial skin fibroblasts (Nunomura S, et al. J Invest Dermatol. 139:1274-1283, 2019). These mice inevitably develop atopic dermatitis-like rash limited to the face and intense itchy symptoms, and were therefore designated as Facial Atopic Dermatitis with Scratching (FADS) mice. […] For evaluation of the prophylactic or therapeutic agent of the present invention, FADS mice at 3 to 4 weeks of age or older were used because of showing spontaneous scratching behaviors. It should be noted that in this Example section, the above compound of formula (I) (more particularly “CP4715”) was used as the prophylactic or therapeutic agent of the present invention.
FADS mice were acclimated for 20 minutes to the environment of a recording cage, and then recorded with a video camera. The recorded videos were replayed, and scratching behaviors were counted assuming that hind paw scratching to the face and the subsequent movement of toe licking or paw lowering to the ground were regarded as one cycle of scratching behavior.
(§1) Prior to the administration of the above αvβ3 integrin inhibitors, FADS mice were recorded for 60 minutes with a video camera and then allowed to rest for 15 minutes. The compounds except for GLPG-0187 were each dissolved at 89.5 mM in a diluent (physiological saline containing 50% DMSO and 89.5 mM HCL), from which an amount corresponding to 53.7 μmol/kg per mouse was then taken and diluted with 0.3 mL of PBS, and then administered intraperitoneally. […] Mice administered with 0.3 mL of PBS containing an equal amount of the diluent as calculated based on the body weight were used as a control group.
The mice were recorded for 60 minutes with a video camera immediately after administration of the above αvβ3 integrin inhibitors. The number of scratchings before administration was used as a baseline, and % change from the baseline after administration was calculated for each compound. For statistical analysis, paired t-test was used. A P-value of less than 0.05 was considered to be statistically significant. The effect of an inhibitor whose mean change from the baseline was −65% or more at a P-value of less than 0.01 was expressed as “++”; the effect of an inhibitor whose mean change from the baseline was −60% or less at a P-value of less than 0.05 was expressed as “+”; and the effect of an inhibitor whose mean change from the baseline was −60% or less at a P-value of 0.05 or higher was expressed as “−.”

Data set [5] in a line: Solubility in the diluent. The class given is physicochemical. The note with it: diluent: physiological saline containing 50% DMSO and 89.5 mM HCl. The procedure:
as §1

Data set [6] concerns scratching behaviors. The conditions noted are these: intracutaneous or subcutaneous administration; Non-patent Document 2; cited from earlier work.

T1 sequence (P06756 31-889 limits assumed): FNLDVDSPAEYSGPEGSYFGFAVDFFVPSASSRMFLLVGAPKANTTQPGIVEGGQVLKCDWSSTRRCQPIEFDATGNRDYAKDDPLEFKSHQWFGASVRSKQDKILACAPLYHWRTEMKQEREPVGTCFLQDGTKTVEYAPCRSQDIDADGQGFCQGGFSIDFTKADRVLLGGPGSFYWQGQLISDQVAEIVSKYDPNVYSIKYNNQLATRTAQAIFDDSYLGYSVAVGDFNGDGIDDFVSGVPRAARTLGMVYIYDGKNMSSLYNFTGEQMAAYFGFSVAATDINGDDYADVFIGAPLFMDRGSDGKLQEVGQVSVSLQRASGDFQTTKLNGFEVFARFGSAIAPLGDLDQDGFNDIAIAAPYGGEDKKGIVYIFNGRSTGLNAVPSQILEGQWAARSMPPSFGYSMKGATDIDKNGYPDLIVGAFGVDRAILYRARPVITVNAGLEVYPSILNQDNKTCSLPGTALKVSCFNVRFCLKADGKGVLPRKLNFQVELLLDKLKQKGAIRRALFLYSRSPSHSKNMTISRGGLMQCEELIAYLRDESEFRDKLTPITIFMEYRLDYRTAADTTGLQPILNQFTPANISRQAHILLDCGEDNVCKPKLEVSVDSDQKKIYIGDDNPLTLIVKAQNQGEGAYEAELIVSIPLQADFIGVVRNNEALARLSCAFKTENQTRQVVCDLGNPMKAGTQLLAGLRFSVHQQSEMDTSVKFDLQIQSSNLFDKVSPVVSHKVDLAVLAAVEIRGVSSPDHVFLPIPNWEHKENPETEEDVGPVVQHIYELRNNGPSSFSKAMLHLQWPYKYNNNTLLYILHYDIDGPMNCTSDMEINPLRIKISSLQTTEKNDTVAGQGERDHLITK
T1 sequence (P06756 891-1048 partner limits assumed): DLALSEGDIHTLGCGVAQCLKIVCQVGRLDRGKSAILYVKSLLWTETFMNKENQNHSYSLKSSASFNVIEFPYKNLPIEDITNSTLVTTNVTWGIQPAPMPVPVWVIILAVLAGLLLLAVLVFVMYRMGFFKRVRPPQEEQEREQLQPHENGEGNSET
T1 sequence (P05106 27-788): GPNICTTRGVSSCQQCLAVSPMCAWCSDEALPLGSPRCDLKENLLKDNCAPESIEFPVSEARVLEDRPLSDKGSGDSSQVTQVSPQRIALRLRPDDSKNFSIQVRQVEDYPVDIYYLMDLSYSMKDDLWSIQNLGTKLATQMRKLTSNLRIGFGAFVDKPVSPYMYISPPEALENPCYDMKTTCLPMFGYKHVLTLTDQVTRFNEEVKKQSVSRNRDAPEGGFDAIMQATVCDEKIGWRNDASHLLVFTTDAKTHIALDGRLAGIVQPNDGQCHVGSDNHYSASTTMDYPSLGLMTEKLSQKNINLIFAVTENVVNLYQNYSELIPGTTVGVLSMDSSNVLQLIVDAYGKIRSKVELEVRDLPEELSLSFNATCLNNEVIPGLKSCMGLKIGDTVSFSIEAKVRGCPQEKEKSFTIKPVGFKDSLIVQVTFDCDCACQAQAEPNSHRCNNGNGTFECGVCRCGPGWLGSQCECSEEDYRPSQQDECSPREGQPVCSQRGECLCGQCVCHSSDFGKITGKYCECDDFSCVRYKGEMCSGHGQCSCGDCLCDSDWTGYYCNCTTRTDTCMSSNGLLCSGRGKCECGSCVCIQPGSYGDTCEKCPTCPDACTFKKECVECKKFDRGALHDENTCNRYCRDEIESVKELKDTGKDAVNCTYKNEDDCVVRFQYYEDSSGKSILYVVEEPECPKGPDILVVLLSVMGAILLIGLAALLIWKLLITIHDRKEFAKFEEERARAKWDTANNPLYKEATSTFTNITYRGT

As to `O=C(NC[C@H](NS(=O)(=O)c1ccccc1)C(=O)O)c1ccc(N2CCC[C@H](NC3=NCCCN3)C2)cc1` [CP derivative 6, (S)-2-(Phenylsulfonamido)-3-(4-((S)-3-((1,4,5,6-tetrahydropyrimidin-2-yl)amino)piperidin-1-yl)benzamido)propanoic acid], the “inhibition of binding between integrin αvβ3 and vitronectin” value in data set [1] is “inhibit binding”. Besides, the “inhibition of binding between integrin αvβ3 and periostin” value in data set [2] is “inhibit binding”. Also, in data set [3], the IC50 is no more than 1 nM and the “cell adhesion inhibitory effect (in words)” value was “high”. In data set [4] (53.7 μmol/kg i.p.), the “% Change from baseline in the number of scratchings (mean ± standard error)” value is −77.8 ± 7.9%. Besides, in data set [4] (single i.p., 53.7 μmol/kg (GLPG-0187 5.37 μmol/kg), paired t-test), the “grade of effect on % change from the baseline in the number of scratchings” value is “++ (mean change from the baseline was −65% or more at a P-value of less than 0.01)”.
For the molecule `COc1ccc(S(=O)(=O)N[C@@H](CNc2nc(C)nc(N3CCC(c4ccc5c(n4)NCCC5)CC3)c2C)C(=O)O)cc1` [GLPG-0187, (S)-3-((2,5-dimethyl-6-(4-(5,6,7,8-tetrahydro-1,8-naphthyridin-2-yl)piperidin-1-yl)pyrimidin-4-yl)amino)-2-((4-methoxyphenyl)sulfonamido)propanoic acid], the solubility entry in data set [5] is listed as “low solubility”. Also, in data set [3], the IC50 was no more than 1 nM and the “cell adhesion inhibitory effect (in words)” value is “high”. Besides, in data set [4] (5.37 μmol/kg i.p.), the “% Change from baseline in the number of scratchings (mean ± standard error)” value is recorded as −38.9 ± 31.2%.

B1: Periostin: extracellular matrix protein that binds to cell surface receptors belonging to the integrin family (protein, UniProt Q15063 22-836, looked up)
Periostin: NNHYDKILAHSRIRGRDQGPNVCALQQILGTKKKYFSTCKNWYKKSICGQKTTVLYECCPGYMRMEGMKGCPAVLPIDHVYGTLGIVGATTTQRYSDASKLREEIEGKGSFTYFAPSNEAWDNLDSDIRRGLESNVNVELLNALHSHMINKRMLTKDLKNGMIIPSMYNNLGLFINHYPNGVVTVNCARIIHGNQIATNGVVHVIDRVLTQIGTSIQDFIEAEDDLSSFRAAAITSDILEALGRDGHFTLFAPTNEAFEKLPRGVLERIMGDKVASEALMKYHILNTLQCSESIMGGAVFETLEGNTIEIGCDGDSITVNGIKMVNKKDIVTNNGVIHLIDQVLIPDSAKQVIELAGKQQTTFTDLVAQLGLASALRPDGEYTLLAPVNNAFSDDTLSMDQRLLKLILQNHILKVKVGLNELYNGQILETIGGKQLRVFVYRTAVCIENSCMEKGSKQGRNGAIHIFREIIKPAEKSLHEKLKQDKRFSTFLSLLEAADLKELLTQPGDWTLFVPTNDAFKGMTSEEKEILIRDKNALQNIILYHLTPGVFIGKGFEPGVTNILKTTQGSKIFLKEVNDTLLVNELKSKESDIMTTNGVIHVVDKLLYPADTPVGNDQLLEILNKLIKYIQIKFVRGSTFKEIPVTVYTTKIITKVVEPKIKVIEGSLQPIIKTEGPTLTKVKIEGEPEFRLIKEGETITEVIHGEPIIKKYTKIIDGVPVEITEKETREERIITGPEIKYTRISTGGGETEETLKKLLQEEVTKVTKFIEGGDGHLFEDEEIKRLLQGDTPVRKLQANKKVQGSRRRLREGRSQ
Turning to B1, the “induction of scratching behaviors” value in data set [6] is “induce scratching behaviors”.
